Results published in patent publication US20240158446A1, “CYCLIC COMPOUND HAVING SELECTIVE INHIBITORY ACTION ON KRAS OVER HRAS AND NRAS” (CHUGAI SEIYAKU KABUSHIKI KAISHA, priority 2021, published 2024).

Columns and labels:
[1] = molecular target: GDP-bound NRAS wild-type protein (Homo sapiens, UniProt P01111); assay: Binding to NRAS by surface plasmon resonance (SPR), Single Cycle Kinetics; conditions: SPR, GDP-bound NRAS wild-type protein vs GDP-bound KRAS wild-type protein
[2] = molecular target: GDP-bound KRAS wild-type protein (Homo sapiens, UniProt P01116); assay: Binding to KRAS by surface plasmon resonance (SPR), Single Cycle Kinetics; conditions: SPR Single Cycle Kinetics, GDP-bound KRAS wild-type protein, 1:1 binding model; read-out: KRAS KD
[3] = molecular target: GDP-bound HRAS wild-type protein (Homo sapiens, UniProt P01112); assay: Binding to HRAS by surface plasmon resonance (SPR), Single Cycle Kinetics; conditions: SPR, GDP-bound HRAS wild-type protein vs GDP-bound KRAS wild-type protein
GDP-bound HRAS wild-type protein, sequence (P01112 whole entry): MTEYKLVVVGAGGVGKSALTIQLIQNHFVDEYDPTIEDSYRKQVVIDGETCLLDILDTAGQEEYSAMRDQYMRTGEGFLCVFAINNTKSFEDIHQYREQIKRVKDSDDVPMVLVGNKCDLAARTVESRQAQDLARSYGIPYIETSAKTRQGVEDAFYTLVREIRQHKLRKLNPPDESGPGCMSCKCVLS

GDP-bound NRAS wild-type protein, sequence (P01111 whole entry): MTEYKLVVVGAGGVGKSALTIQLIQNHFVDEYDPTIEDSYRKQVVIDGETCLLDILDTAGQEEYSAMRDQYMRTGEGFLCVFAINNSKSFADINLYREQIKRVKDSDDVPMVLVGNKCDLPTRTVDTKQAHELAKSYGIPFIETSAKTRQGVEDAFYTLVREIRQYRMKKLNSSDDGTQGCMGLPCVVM
GDP-bound KRAS wild-type protein, sequence (P01116 whole entry): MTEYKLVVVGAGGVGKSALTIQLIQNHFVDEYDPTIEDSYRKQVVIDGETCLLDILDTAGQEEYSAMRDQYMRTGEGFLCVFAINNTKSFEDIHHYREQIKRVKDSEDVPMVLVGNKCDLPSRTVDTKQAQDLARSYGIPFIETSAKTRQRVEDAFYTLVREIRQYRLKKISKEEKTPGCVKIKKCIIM

## CC[C@H](C)[C@@H]1NC(=O)[C@H](CC(C)C)N(C)C(=O)C[C@@H](C(=O)N2CCOCC2)N(C)C(=O)[C@H](C2CCCC2)N(C)C(=O)C2(CCCC2)NC(=O)[C@@H]2C[C@H](O)CN2C(=O)[C@H](CCc2cc(F)c(C(F)(F)F)c(F)c2)NC(=O)CN(C)C(=O)[C@H](Cc2ccc(C(F)(F)F)cc2)N2CCCC[C@@H](C2=O)N(C)C(=O)CN(C)C1=O [PP0556]
[1]
  NRAS/KRAS (ratio of KD value with respect to NRAS to KD value with respect to KRAS): C (A compound having a KD ratio of 0.1 or more and less than 3 is denoted as C)
[2]
  Kd: 0.024 nM
[3]
  HRAS/KRAS (ratio of KD value with respect to HRAS to KD value with respect to KRAS): B (a compound having 3 or more and less than 10 is denoted as B)

## CC[C@H](C)[C@@H]1NC(=O)[C@H](CC(C)C)N(C)C(=O)C[C@@H](C(=O)N2CCOCC2)N(C)C(=O)[C@H](C2CCCC2)N(C)C(=O)C2(CCCC2)NC(=O)[C@@H]2C[C@H](OC)CN2C(=O)[C@H](CCc2cc(F)c(C(F)(F)F)c(F)c2)NC(=O)CN(C)C(=O)[C@H](Cc2ccc(C(F)(F)F)cc2)N2CCCC[C@@H](C2=O)N(C)C(=O)CN(C)C1=O [PP0557]
[1]
  NRAS/KRAS (ratio of KD value with respect to NRAS to KD value with respect to KRAS): B (a compound having 3 or more and less than 10 is denoted as B)
[2]
  Kd: 0.11 nM
[3]
  HRAS/KRAS (ratio of KD value with respect to HRAS to KD value with respect to KRAS): B (a compound having 3 or more and less than 10 is denoted as B)

## CC[C@H](C)[C@@H]1NC(=O)[C@H](CC(C)C)N(C)C(=O)C[C@@H](C(=O)N2CCOCC2)N(C)C(=O)[C@H](C2CCCC2)N(C)C(=O)C2(CC2)NC(=O)[C@@H]2CCCN2C(=O)[C@H](CCc2cc(F)c(C(F)(F)F)c(F)c2)NC(=O)CN(C)C(=O)[C@H](Cc2ccc(C(F)(F)F)cc2)N2CCCC[C@@H](C2=O)N(C)C(=O)CN(C)C1=O [PP0559]
[1]
  NRAS/KRAS (ratio of KD value with respect to NRAS to KD value with respect to KRAS): B (a compound having 3 or more and less than 10 is denoted as B)
[2]
  Kd: 0.16 nM
[3]
  HRAS/KRAS (ratio of KD value with respect to HRAS to KD value with respect to KRAS): B (a compound having 3 or more and less than 10 is denoted as B)

## CC[C@H](C)[C@@H]1NC(=O)[C@H](CC(C)C)N(C)C(=O)C[C@@H](C(=O)N2CCOCC2)N(C)C(=O)[C@H](C2CCCC2)N(C)C(=O)C2(CCC2)NC(=O)[C@@H]2CCCN2C(=O)[C@H](CCc2cc(F)c(C(F)(F)F)c(F)c2)NC(=O)CN(C)C(=O)[C@H](Cc2ccc(C(F)(F)F)cc2)N2CCCC[C@@H](C2=O)N(C)C(=O)CN(C)C1=O [PP0560]
[1]
  NRAS/KRAS (ratio of KD value with respect to NRAS to KD value with respect to KRAS): B (a compound having 3 or more and less than 10 is denoted as B)
[2]
  Kd: 0.05 nM
[3]
  HRAS/KRAS (ratio of KD value with respect to HRAS to KD value with respect to KRAS): B (a compound having 3 or more and less than 10 is denoted as B)

## CC[C@H](C)[C@@H]1NC(=O)[C@H](CC(C)C)N(C)C(=O)C[C@@H](C(=O)N2CCOCC2)N(C)C(=O)[C@H](C2CCCC2)N(C)C(=O)C2(CCCCC2)NC(=O)[C@@H]2CCCN2C(=O)[C@H](CCc2cc(F)c(C(F)(F)F)c(F)c2)NC(=O)CN(C)C(=O)[C@H](Cc2ccc(C(F)(F)F)cc2)N2CCCC[C@@H](C2=O)N(C)C(=O)CN(C)C1=O [PP0561]
[1]
  NRAS/KRAS (ratio of KD value with respect to NRAS to KD value with respect to KRAS): B (a compound having 3 or more and less than 10 is denoted as B)
[2]
  Kd: 0.31 nM
[3]
  HRAS/KRAS (ratio of KD value with respect to HRAS to KD value with respect to KRAS): B (a compound having 3 or more and less than 10 is denoted as B)

## CC[C@H](C)[C@@H]1NC(=O)[C@H](CC(C)C)N(C)C(=O)C[C@@H](C(=O)N2CCOCC2)N(C)C(=O)[C@H](C2CCCC2)N(C)C(=O)C2(CC(F)(F)C2)NC(=O)[C@@H]2CCCN2C(=O)[C@H](CCc2cc(F)c(C(F)(F)F)c(F)c2)NC(=O)CN(C)C(=O)[C@H](Cc2ccc(C(F)(F)F)cc2)N2CCCC[C@@H](C2=O)N(C)C(=O)CN(C)C1=O [PP0562]
[1]
  NRAS/KRAS (ratio of KD value with respect to NRAS to KD value with respect to KRAS): B (a compound having 3 or more and less than 10 is denoted as B)
[2]
  Kd: 0.04 nM
[3]
  HRAS/KRAS (ratio of KD value with respect to HRAS to KD value with respect to KRAS): B (a compound having 3 or more and less than 10 is denoted as B)

## CC[C@H](C)[C@@H]1NC(=O)[C@H](CC(C)C)N(C)C(=O)C[C@@H](C(=O)N2CCOCC2)N(C)C(=O)[C@H](C2CCCC2)N(C)C(=O)C2(COC2)NC(=O)[C@@H]2CCCN2C(=O)[C@H](CCc2cc(F)c(C(F)(F)F)c(F)c2)NC(=O)CN(C)C(=O)[C@H](Cc2ccc(C(F)(F)F)cc2)N2CCCC[C@@H](C2=O)N(C)C(=O)CN(C)C1=O [PP0563]
[1]
  NRAS/KRAS (ratio of KD value with respect to NRAS to KD value with respect to KRAS): B (a compound having 3 or more and less than 10 is denoted as B)
[2]
  Kd: 0.1 nM
[3]
  HRAS/KRAS (ratio of KD value with respect to HRAS to KD value with respect to KRAS): B (a compound having 3 or more and less than 10 is denoted as B)

## CC[C@H](C)[C@@H]1NC(=O)[C@H](CC(C)C)N(C)C(=O)C[C@@H](C(=O)N2CCOCC2)N(C)C(=O)[C@H](C2CCCC2)N(C)C(=O)C2(CCOCC2)NC(=O)[C@@H]2CCCN2C(=O)[C@H](CCc2cc(F)c(C(F)(F)F)c(F)c2)NC(=O)CN(C)C(=O)[C@H](Cc2ccc(C(F)(F)F)cc2)N2CCCC[C@@H](C2=O)N(C)C(=O)CN(C)C1=O [PP0564]
[1]
  NRAS/KRAS (ratio of KD value with respect to NRAS to KD value with respect to KRAS): B (a compound having 3 or more and less than 10 is denoted as B)
[2]
  Kd: 0.18 nM
[3]
  HRAS/KRAS (ratio of KD value with respect to HRAS to KD value with respect to KRAS): B (a compound having 3 or more and less than 10 is denoted as B)

## CC[C@H](C)[C@@H]1NC(=O)[C@H](CC(C)C)N(C)C(=O)C[C@@H](C(=O)N2CCOCC2)N(C)C(=O)[C@H](C2CCCC2)N(C)C(=O)C(C)(C)NC(=O)[C@@H]2CCCN2C(=O)[C@H](CCc2cc(F)c(C(F)(F)F)c(F)c2)NC(=O)CN(C)C(=O)[C@H](Cc2ccc(C(F)(F)F)cc2)N2CCCC[C@@H](C2=O)N(C)C(=O)CN(C)C1=O [PP0565]
[1]
  NRAS/KRAS (ratio of KD value with respect to NRAS to KD value with respect to KRAS): C (A compound having a KD ratio of 0.1 or more and less than 3 is denoted as C)
[2]
  Kd: 0.16 nM
[3]
  HRAS/KRAS (ratio of KD value with respect to HRAS to KD value with respect to KRAS): B (a compound having 3 or more and less than 10 is denoted as B)

## CC[C@H](C)[C@@H]1NC(=O)[C@H](CC(C)C)N(C)C(=O)C[C@@H](C(=O)N2CCOCC2)N(C)C(=O)[C@H](C2CCC2)N(C)C(=O)C2(CCCC2)NC(=O)[C@@H]2CCCN2C(=O)[C@H](CCc2cc(F)c(C(F)(F)F)c(F)c2)NC(=O)CN(C)C(=O)[C@H](Cc2ccc(C(F)(F)F)cc2)N2CCCC[C@@H](C2=O)N(C)C(=O)CN(C)C1=O [PP0566]
[1]
  NRAS/KRAS (ratio of KD value with respect to NRAS to KD value with respect to KRAS): B (a compound having 3 or more and less than 10 is denoted as B)
[2]
  Kd: 0.29 nM
[3]
  HRAS/KRAS (ratio of KD value with respect to HRAS to KD value with respect to KRAS): B (a compound having 3 or more and less than 10 is denoted as B)

## CC[C@H](C)[C@@H]1NC(=O)[C@H](CC(C)C)N(C)C(=O)C[C@@H](C(=O)N2CCOCC2)N(C)C(=O)[C@H](C2CCCCC2)N(C)C(=O)C2(CCCC2)NC(=O)[C@@H]2CCCN2C(=O)[C@H](CCc2cc(F)c(C(F)(F)F)c(F)c2)NC(=O)CN(C)C(=O)[C@H](Cc2ccc(C(F)(F)F)cc2)N2CCCC[C@@H](C2=O)N(C)C(=O)CN(C)C1=O [PP0567]
[1]
  NRAS/KRAS (ratio of KD value with respect to NRAS to KD value with respect to KRAS): B (a compound having 3 or more and less than 10 is denoted as B)
[2]
  Kd: 0.21 nM
[3]
  HRAS/KRAS (ratio of KD value with respect to HRAS to KD value with respect to KRAS): B (a compound having 3 or more and less than 10 is denoted as B)
